Reference: US20240173241A1, “Multistable Photochromic Pigments For Intradermal Use” (THE REGENTS OF THE UNIVERSITY OF COLORADO, a body corporate, priority 2021, published 2024)

Assay: UV activation of P-type photochromic dye in PMMA matrix in natural sunlight (ΔE*ab vs. time)
Assay type: physicochemical
From the text: FIG. 5 is a set of six graphs (A-F) comparing measured and modeled data for the UV activation of P-type photochromic dyes with and without UV and color filters. The UV-activated color change is quantified by ΔE*ab in CIELAB chromaticity space for measured data, while it is expressed in terms of the relative concentration. [C], of the photoactivated species in the modeled data. (A) ΔE*ab vs. time for a P-type photochromic dye (1,2-Bis(2-methyl-5-phenyl-3-thienyl)-perfluorocyclopentenediarylethene, DAE-0001) embedded in a PMMA matrix in natural sunlight in Boulder, Colorado. The time to 85% complete activation, […], is 67 s. (B) ΔE*ab vs. time for DAE-0001 with 50% UV filter ([…] =142 s). […]
where [C] is the concentration of the photoactivated species (photostationary state), [S] is the concentration of the ground-state species, εS,λ is the molar absorptivity of the ground-state species at wavelength λ, εC,λ is the molar absorptivity of the photoactivated species at wavelength λ, φs is the quantum yield of the cycloreversion or deactivation, φC is the quantum yield of photoactivation, Iλ is the irradiance at wavelength λ, and l is the path length. […] The simulations agree well with measured data of its UV activation in natural sunlight in Boulder, Colorado, as shown in FIG. 5A and FIG. 5B. […]

In the case of `Cc1sc(-c2ccccc2)cc1C1=C(c2cc(-c3ccccc3)sc2C)C(F)(F)C(F)(F)C1(F)F` [DAE-0001, 1,2-Bis(2-methyl-5-phenyl-3-thienyl)-perfluorocyclopentenediarylethene], the “time to 85% complete activation” value (embedded in a PMMA matrix, natural sunlight in Boulder, Colorado, no filter (FIG. 5A)) is reported as 67 s and the “time to 85% complete activation” value (natural sunlight, with 50% UV filter (FIG. 5B)) is reported as 142 s.
